Experimental findings from PubChem BioAssay AID179 (DTP/NCI, 2004) are described below.

Structures are written as SMILES. Activity calls are given as the source filed them.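 The calls were made as follows: active = compounds giving half or more protection of infected cells from virus-caused growth loss, again on retest; inactive = the rest.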

This test deals with CEM cells HIV-1 protection, formazan growth assay. Put plainly: NCI AIDS Antiviral Assay. Conditions: for IC50: measured here: growth of uninfected CEM cells. A digest of the protocol:
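Five concentrations of each compound were applied to infected and uninfected human CEM cells. Protection from HIV-1 was judged from growth measured with a soluble formazan assay.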

For the compound `COc1cc(O)c2cc1Oc1ccc(cc1)CC1=NCCc3cc(OC)c(cc31)Oc1c(OC)c(OC)c(OC)c3c1[C@H](C2)N(C)CC3`, the outcome was inactive.
As for `C=CCCCCO/N=C/c1c2c(O)c3c(O)c(C)c4c(c3c1O)C(=O)C(C)(O/C=C/C(OC)C(C)C(OC(C)=O)C(C)C(O)C(C)C(O)C(C)/C=C/C=C(\C)C(=O)N2)O4` (configuration not stated), the EC50 is more than 200 µM and the IC50 came out at 7.41 µM.
On to `O=C1CCC2(c3ccc(Cl)cc3)Nc3ncccc3N12` (configuration not stated), for which the EC50 is more than 126 µM and the IC50 is 97.7 µM.
Taken in the same sequence, the figures for `C/C=C/C(C1=C(O)c2ccccc2C(=O)C1=O)C1=C(O)c2ccccc2C(=O)C1=O` were more than 200 µM and 83.2 µM.
Take `CCCC(C)(O)CN` (configuration not stated): the result was inactive.
In the case of `O=C1C=C(N2CCCCC2)c2cnccc2C1=O`, the result was inactive.
Still for that read-out and setting: the value for `CC1(C)CCC[C@]2(C)c3occc3CCC12` (some centres not stated) was “inactive”.
As to `CCCCCCCCCCCCCCCCCC(=O)NCC(COP(=O)(O)O)OCC` (configuration not stated), the EC50 is more than 21.4 µM and the IC50 was more than 21.4 µM.
Take `C[C@H](CCc1nc(C#N)c(N)o1)[C@H]1CC[C@H]2[C@@H]3[C@@H](O)CC4C[C@@H](O)CC[C@]4(C)[C@H]3C[C@@H](O)[C@]12C` (some centres not stated): the EC50 is more than 200 µM and the IC50 came to 16.6 µM.
In the case of `CN(C)C(=O)OC(Cn1cncn1)c1ccc(Cl)cc1Cl` (configuration not stated), the EC50 is more than 537 µM and the IC50 was found to be 275 µM.
Consider `CCOC(=O)CCC(=O)C1c2cccc(O)c2C(=O)c2c(O)cc(C)cc21` (configuration not stated), for which the EC50 is more than 37.2 µM and the IC50 was determined as 1.35 µM.
Taken in the same sequence, the figures for `N#Cc1ccc(Oc2nc3ccccc3nc2C(=O)O)cc1` were more than 200 µM and more than 200 µM.
For `CC(C)(C)C1=CC(=Nc2c([N+](=O)[O-])cc([N+](=O)[O-])cc2[N+](=O)[O-])C=C(C(C)(C)C)C1=O`, the EC50 was more than 11.5 µM and the IC50 was more than 11.5 µM.
`COC(=O)[C@H](C)NC(=O)[C@H](CSC)N1C(=O)N[C@@H](C(C)C)C1=O`: the EC50 is more than 200 µM and the IC50 worked out at 24.5 µM.
With `CCC1Sc2cc(OC)cc(NC=O)c2NC1=O` (configuration not stated), the EC50 is 174 µM and the IC50 was more than 200 µM.
In the case of `OCCOCCO[P+]1(OCCOCCO)n2c3ccc2C(c2ccccc2)=C2C=CC(=N2)C(c2ccccc2)=c2ccc(n21)=C(c1ccccc1)C1=NC(=C3c2ccccc2)C=C1`, the EC50 was more than 100 µM and the IC50 amounted to 0.0794 µM.
For `CC12CC(=O)Nc3ccccc3N1C(c1ccccc1)=NO2` (configuration not stated), the EC50 is more than 200 µM and the IC50 was more than 200 µM.
As to `CC(C)(C)c1cc(C2COC(=O)COCCOCC(=O)OCCOCCO2)cc(C(C)(C)C)c1O` (configuration not stated), the EC50 was more than 200 µM and the IC50 worked out at 178 µM.
In the case of `CC(=O)NNc1nc(C)c(C(/C=C/c2ccc(Cl)cc2)=N\N=C(N)N)s1`, the EC50 was more than 18.2 µM and the IC50 is more than 18.2 µM.
`CC(C)OP(=O)(OC(C)C)c1nc(-c2ccccc2)n(-c2ccc([N+](=O)[O-])cc2)n1`: the EC50 is more than 302 µM and the IC50 was found to be 219 µM.
Take `S=C1OC2CCCC[C@H]2O1` (some centres not stated): the EC50 was more than 120 µM and the IC50 was more than 120 µM.
As for `Brc1ccc2noc(-c3ccccc3)c2c1`, the EC50 was more than 7.24 µM and the IC50 was more than 7.24 µM.
For the compound `CC(C)=CCC/C(C)=C/COC(=O)N(c1ccccc1)c1ccccc1`, the EC50 was more than 200 µM and the IC50 was more than 200 µM.
For `O=c1[nH]c2cc(Cl)ccc2n1C1CCN(CCCC(c2ccc(F)cc2)c2ccc(F)cc2)CC1`, the EC50 was more than 200 µM and the IC50 came to 18.6 µM.
`CC(=O)Oc1ccc2c3c4nc5ccccc5nc4cc(OC(C)=O)c3n(C)c2c1`: the EC50 was more than 5.01 µM and the IC50 is more than 5.01 µM.
For `O=S(=O)([O-])[O-].[OH3+].[OH3+].[OH3+].[Ru+2].c1ccccc1`, the EC50 is more than 79.4 µM and the IC50 was more than 79.4 µM.
With `COc1cc([N+](=O)[O-])ccc1NC(=O)C(F)(F)F`, the EC50 is more than 200 µM and the IC50 came out at 57.5 µM.
As for `C=C(CCCC(C)OCOCCOC)[Si](C)(C)C` (configuration not stated), the EC50 was more than 95.5 µM and the IC50 was more than 95.5 µM.
With `O=C1c2cccc3c([N+](=O)[O-])ccc(c23)C(=O)N1NCCO`, the result was inactive.
Consider `O=C(CC1(O)C(=O)Nc2ccc(Br)cc21)c1ccc(Cl)cc1` (configuration not stated), for which the EC50 is more than 93.3 µM and the IC50 is more than 93.3 µM.
With `N#C/C=C/c1ccc(Cl)cc1`, the EC50 is more than 219 µM and the IC50 was more than 219 µM.
On to `CCCCNC(C)(C)C(SSSC(c1cccs1)C(C)(C)NCCCC)c1cccs1` (configuration not stated), for which the EC50 was more than 200 µM and the IC50 is 20 µM.
In the case of `C/C(=N/OC(=O)N(C)C)c1ccccc1`, the EC50 is more than 200 µM and the IC50 was more than 200 µM.
For the compound `COc1ccc2c(c1)CC[C@@H]1C2CC[C@]2(C)OC(=O)CCC12` (some centres not stated), the EC50 was more than 87.1 µM and the IC50 was 12 µM.
With `C/C=C/C=N/N(c1nnc(-c2ccccc2)c(-c2ccccc2)n1)S(=O)(=O)c1ccc(C)cc1`, the EC50 was more than 21.4 µM and the IC50 stood at 7.59 µM.
The corresponding values for `NNC(=O)C(CC(C(=O)NN)C(=O)NN)C(=O)NN` are more than 912 µM and 66.1 µM.
Take `Cc1nc2c(=O)n(-c3ccccc3)c(=O)n(-c3ccccc3)c2o1`: the EC50 was more than 200 µM and the IC50 is more than 200 µM.
Consider `Nc1nc(NCC2(CO)CC2)cc(=O)[nH]1`, for which the EC50 is more than 200 µM and the IC50 is more than 200 µM.
With `CCC(=O)N1NC(=O)C(CC)(CC)C1=O`, the EC50 is more than 200 µM and the IC50 is more than 200 µM.
On to `NC(N)=NCCCC(NCc1c2ccccc2[n+]([O-])c2ccccc12)C(=O)O` (configuration not stated), for which the result was inactive.
For `O=C(CSc1nnc(-c2ccc(N=Cc3ccc(Cl)cc3)cc2)o1)Nc1cccc([N+](=O)[O-])c1`, the EC50 was more than 5.5 µM and the IC50 stood at 2.24 µM.
For `CN(Cc1cnc2nc(N)nc(N)c2n1)c1ccc(C(=O)NC(CCC(=O)NC(CC(P(=O)(O)O)P(=O)(O)O)C(=O)O)C(=O)O)cc1` (configuration not stated), the EC50 was more than 100 µM and the IC50 stood at 0.219 µM.
For `O=S1c2ccccc2SCSc2ccccc21`, the EC50 was more than 200 µM and the IC50 is more than 200 µM.
For the compound `NC(=O)C(Cc1ccccc1)NC(=O)c1ccccc1SC(=O)CCCC[n+]1ccccc1` (configuration not stated), the EC50 is more than 200 µM and the IC50 was 4.47 µM.
`COc1ccccc1-c1cc(B(O)O)ccc1OC`: the EC50 is more than 200 µM and the IC50 was 40.7 µM.
The corresponding values for `[O-]c1c2cc(-[n+]3c(-c4ccccc4)cc(-c4ccccc4)cc3-c3ccccc3)cc1CO[C@@H](c1ccccc1)[C@H](c1ccccc1)OCCOCCO[C@@H](c1ccccc1)[C@H](c1ccccc1)OC2` are more than 2 µM and 0.105 µM.
With `C=C(C)C1C/C=C(/C)CCCC2(CCC3=C(CC(C(=C)C)C/C=C(/C)CCC3)O2)C(=O)C1` (configuration not stated), the EC50 was more than 30.9 µM and the IC50 was more than 30.9 µM.
In the case of `O=C1/C=C(/c2ccc(O)cc2)[C@@H](O)Cc2ccc(O)cc2O1`, the EC50 is more than 200 µM and the IC50 was more than 200 µM.
As for `c1ccc([P+](CCC[P+](c2ccccc2)(c2ccccc2)c2ccccc2)(c2ccccc2)c2ccccc2)cc1`, the EC50 is more than 200 µM, the outcome was inactive and the IC50 amounted to 135 µM.
As to `COc1ccc([C@@H]2CC(=O)NCCCNCCCCNCCCN2)cc1`, the EC50 was more than 200 µM and the IC50 turned out to be 123 µM.
`COc1cc(-c2nccc3cc(OC)c(OC)cc23)ccc1O`: the result was inactive.
Turning to `O=[N+]([O-])O[C@H]1CO[C@H]2[C@@H]1OC[C@H]2O[N+](=O)[O-]`, the EC50 was more than 200 µM and the IC50 was more than 200 µM.
`O=[N+]([O-])CC(SCc1ccccc1)c1ccc2c(c1)OCO2` (configuration not stated): the result was inactive.
Turning to `COC(=O)C1=CCC2c3[nH]c4ccccc4c3CCN2C1` (configuration not stated), the EC50 was more than 91.2 µM and the IC50 was more than 91.2 µM.
For the compound `[N-]=[N+]=NC1OC(=O)C(Cl)=C1N=P(c1ccccc1)(c1ccccc1)c1ccccc1` (configuration not stated), the EC50 was more than 69.2 µM and the IC50 is 7.94 µM.
Take `O=C(/C=C(\Cl)c1c[nH]c(=O)[nH]c1=O)c1ccccc1`: the result was inactive.
Consider `Cc1cccc(C)c1NC(=O)C(=O)C1C(=O)N(c2ccccc2)N=C1N` (configuration not stated), for which the EC50 was more than 708 µM and the half-inhibitory concentration (IC50) was more than 708 µM.
With `CC(C)(CN1CCCCC1)C(=O)/C=C/c1ccccc1`, the EC50 is more than 141 µM and the IC50 stood at 69.2 µM.
In the case of `CC1=NC(C)=C(/C(C)=N/NC(=O)c2ccccc2O)C(C)/C1=C(/C)NNC(=O)c1ccccc1O` (configuration not stated), the EC50 is more than 186 µM and the IC50 was determined as 8.71 µM.
With `CN(C)CC1CCCCCCCCCC(CN(C)C)C1=O` (configuration not stated), the EC50 is more than 5.89 µM and the IC50 was more than 5.89 µM.
On to `O=S1(=O)CS(=O)(=O)OCCCCCO1`, for which the EC50 was more than 537 µM and the IC50 was more than 537 µM.
Consider `COc1ccc2c(c1OC)C1=NCCc3c(OC)c(OC)c(OC)c-2c31`, for which the result was inactive.
Regarding `CCSc1cc(C(=O)OC)c2n(c1=O)CCCC2`, the EC50 is more than 200 µM and the IC50 is more than 200 µM.
Turning to `COc1cccc2c1OC1Sc3ccccc3-c3nn(-c4ccccc4)c-2c31` (configuration not stated), the EC50 was more than 7.08 µM and the IC50 is more than 7.08 µM.
Consider `OC1C2C=CCC1CCC2` (configuration not stated), for which the result was inactive.
Regarding `NC1=Nc2ccccc2Sc2ccccc21`, the EC50 is more than 60.3 µM and the IC50 was more than 60.3 µM.
`O=C1C=C(N2CCOCC2)c2cc(N3CCOCC3)ncc2C1=O`: the result was inactive.
Take `Cn1c(=O)c(C(c2ccc([N+](=O)[O-])cc2)c2c(O)c3ccccc3n(C)c2=O)cc2ccccc21` (configuration not stated): the EC50 is more than 4.27 µM and the IC50 is more than 4.27 µM.
Consider `CCOC(=O)C1(C(=O)OCC)COC(=O)C1CN1Cc2cc3ccccc3nc2C1` (configuration not stated), for which the EC50 was more than 427 µM and the IC50 was 47.9 µM.
As for `Cc1csc2c1-n1cccc1C2=O`, the EC50 was more than 200 µM and the IC50 was 129 µM.
On to `CC(NS(C)(=O)=O)c1ccccc1` (configuration not stated), for which the EC50 is more than 200 µM and the IC50 is more than 200 µM.
Regarding `Cc1ccc(N=C(SSC(Cl)(Cl)Cl)SSC(Cl)(Cl)Cl)cc1`, the outcome was inactive.
